Values quoted from earlier work as cited in patent publication US10195206B2, “Two-component pharmaceutical composition for the treatment of pain” (BRIDGE THERAPEUTICS, INC., priority 2005, dated 2019).

Columns and labels:
[1] = in vivo
[2] = in vivo; remark: listed apart in the source

## CN1C(C(=O)Nc2ccccn2)=C(O)c2ccccc2S1(=O)=O [Piroxicam, 4-hydroxyl-2-methyl-N-2-pyridinal-2H-1,2-benzothiazine-3-carboximide 1,1-dioxide]
other
  solubility in water: sparingly soluble
[1]
  half-life: approximately 50 hours

## CO[C@]12CCC3(C[C@@H]1[C@](C)(O)C(C)(C)C)[C@H]1Cc4ccc(O)c5c4[C@@]3(CCN1CC1CC1)[C@H]2O5.Cl [Buprenorphine, 17-(cyclopropylmethyl)-α-(1,1-dimethylethyl)-4,5-epoxy-18,19-dihydro-3-hydroxy-6-methoxy-α-methyl-6,14-ethenomorphian-7-methanol]
[2]
  oral and/or gastrointestinal bioavailability: poor
other
  solubility in water: limited solubility
[1]
  half-life: approximately 36 hours
